Results: PubChem BioAssay AID1963425 (Molecular Pharmacology Branch, DTP, NCI, 2024)

System: 323965-272-R-J2-PDC complex spheroid growth, % test/control
Experiment: Anticancer human tumor 323965-272-R-J2-PDC patient-derived pancreatic carcinoma cell line growth inhibition [Asc]
Conditions: for IC50: curve of first compound; for viability, T/C: stronger effect = lower value
Summary of the method: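 Spheroid model: tumor line + HUVEC + hMSC. Single agents and combinations; top conc. at/near clinical Cmax (10 microM if undetermined), half-log dilutions. DMSO stocks at 800-fold test concentration.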

[1] = second compound 0.0316 µM, first compound 0.0316 µM
[2] = second compound 0.0316 µM, first compound 0.1 µM
[3] = second compound 0.0316 µM, first compound 0.316 µM
[4] = second compound 0.0316 µM, first compound 1 µM
[5] = second compound 0.1 µM, first compound 0.0316 µM
[6] = second compound 0.1 µM, first compound 0.1 µM
[7] = second compound 0.1 µM, first compound 0.316 µM
[8] = second compound 0.1 µM, first compound 1 µM
[9] = second compound 0.316 µM, first compound 0.0316 µM
[10] = second compound 0.316 µM, first compound 0.1 µM
[11] = second compound 0.316 µM, first compound 0.316 µM
[12] = second compound 0.316 µM, first compound 1 µM
[13] = second compound 1 µM, first compound 0.0316 µM
[14] = second compound 1 µM, first compound 0.1 µM
[15] = second compound 1 µM, first compound 0.316 µM
[16] = second compound 1 µM, first compound 1 µM
[17] = second compound 3.16 µM, first compound 0.0316 µM
[18] = second compound 3.16 µM, first compound 0.1 µM
[19] = second compound 3.16 µM, first compound 0.316 µM
[20] = second compound 3.16 µM, first compound 1 µM
[21] = second compound 10 µM, first compound 0.0316 µM
[22] = second compound 10 µM, first compound 0.1 µM
[23] = second compound 10 µM, first compound 0.316 µM
[24] = second compound 10 µM, first compound 1 µM
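Also: compound exposure lasted 7 days starting three days after spheroid seeding.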
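For viability, T/C in this document: 100% = DMSO vehicle control wells with viability set relative to vehicle.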

With `C=CC(=O)N1CCN(c2nc(=O)n(-c3c(C)ccnc3C(C)C)c3nc(-c4c(O)cccc4F)c(F)cc23)C(C)C1` (centres undefined) + Cc1c(S(C)(=O)=O)c(-c2cc(F)cc(N3CCN(c4ccc(NS(=O)(=O)c5ccc(NC(CCN6CCC(C(=O)OCCCP(=O)(O)O)CC6)CSc6ccccc6)c(S(=O)(=O)C(F)(F)F)c5)cc4)CC3)c2)c(-c2ccc(Cl)cc2)n1C(C)C as the compound, how does the IC50 (second compound 0.0316 µM) read?
The IC50 was over 10 µM.

What about the IC50 (second compound 0.1 µM) of the same compound?
Its IC50 is over 10 µM.

And the IC50 (second compound 0.316 µM)?
The IC50 was over 10 µM.

And the IC50 (second compound 1 µM)?
Its IC50 is over 10 µM.

What about the IC50 (second compound 3.16 µM) of the same compound?
Its IC50 is 0.0793 µM.

What about the IC50 (second compound 10 µM) of the same compound?
Its IC50 is under 0.0316 µM.

And the viability, T/C [1]?
The viability, T/C was 82.1%.

And the viability, T/C [2]?
Its viability, T/C is 64.8%.

And the viability, T/C [3]?
The viability, T/C was 65.9%.

And the viability, T/C [4]?
The viability, T/C was 62.3%.

What about the viability, T/C (second compound 0.0316 µM, first compound 3.16 µM) of the same compound?
Its viability, T/C is 63.7%.

And the viability, T/C (second compound 0.0316 µM, first compound 10 µM)?
Its viability, T/C is 67%.

What about the viability, T/C [5] of the same compound?
Its viability, T/C is 74.3%.

What about the viability, T/C [6] of the same compound?
Its viability, T/C is 64.4%.

And the viability, T/C [7]?
Its viability, T/C is 68%.

And the viability, T/C [8]?
Its viability, T/C is 64.2%.

And the viability, T/C (second compound 0.1 µM, first compound 3.16 µM)?
Its viability, T/C is 66.7%.

And the viability, T/C (second compound 0.1 µM, first compound 10 µM)?
The viability, T/C was 56.8%.

And the viability, T/C [9]?
Its viability, T/C is 76.8%.

And the viability, T/C [10]?
Its viability, T/C is 60.1%.

And the viability, T/C [11]?
The viability, T/C was 56.1%.

And the viability, T/C [12]?
Its viability, T/C is 59%.

And the viability, T/C (second compound 0.316 µM, first compound 3.16 µM)?
The viability, T/C was 58.6%.

And the viability, T/C (second compound 0.316 µM, first compound 10 µM)?
The viability, T/C was 53.5%.

And the viability, T/C [13]?
The viability, T/C was 65.3%.

What about the viability, T/C [14] of the same compound?
The viability, T/C was 59.5%.

And the viability, T/C [15]?
The viability, T/C was 57%.

And the viability, T/C [16]?
Its viability, T/C is 54.5%.

What about the viability, T/C (second compound 1 µM, first compound 3.16 µM) of the same compound?
The viability, T/C was 61.4%.

What about the viability, T/C (second compound 1 µM, first compound 10 µM) of the same compound?
The viability, T/C was 46%.

And the viability, T/C [17]?
Its viability, T/C is 62.2%.

And the viability, T/C [18]?
The viability, T/C was 47.4%.

And the viability, T/C [19]?
Its viability, T/C is 43.2%.

And the viability, T/C [20]?
The viability, T/C was 38.4%.

What about the viability, T/C (second compound 3.16 µM, first compound 3.16 µM) of the same compound?
Its viability, T/C is 43.8%.

And the viability, T/C (second compound 3.16 µM, first compound 10 µM)?
The viability, T/C was 44%.

What about the viability, T/C [21] of the same compound?
Its viability, T/C is 48.2%.

And the viability, T/C [22]?
The viability, T/C was 40.9%.

What about the viability, T/C [23] of the same compound?
Its viability, T/C is 39.7%.

What about the viability, T/C [24] of the same compound?
The viability, T/C was 40.5%.

And the viability, T/C (second compound 10 µM, first compound 3.16 µM)?
The viability, T/C was 44.9%.

What about the viability, T/C (second compound 10 µM, first compound 10 µM) of the same compound?
Its viability, T/C is 39%.

For `COc1c(OCCCN2CCOCC2)ccc2c3n(c(=NC(=O)c4cnc(N)nc4)nc12)CCN3` + Cc1c(S(C)(=O)=O)c(-c2cc(F)cc(N3CCN(c4ccc(NS(=O)(=O)c5ccc(NC(CCN6CCC(C(=O)OCCCP(=O)(O)O)CC6)CSc6ccccc6)c(S(=O)(=O)C(F)(F)F)c5)cc4)CC3)c2)c(-c2ccc(Cl)cc2)n1C(C)C, which IC50 (second compound 0.0316 µM) is on record?
The IC50 was 0.166 µM.

What about the IC50 (second compound 0.1 µM) of the same compound?
Its IC50 is 0.18 µM.

What about the IC50 (second compound 0.316 µM) of the same compound?
The IC50 was 0.116 µM.

What about the IC50 (second compound 1 µM) of the same compound?
Its IC50 is 0.106 µM.

What about the IC50 (second compound 3.16 µM) of the same compound?
The IC50 was 0.0771 µM.

What about the IC50 (second compound 10 µM) of the same compound?
Its IC50 is 0.0365 µM.

What about the viability, T/C (second compound 0.0316 µM, first compound 0.00316 µM) of the same compound?
Its viability, T/C is 110%.

And the viability, T/C (second compound 0.0316 µM, first compound 0.01 µM)?
The viability, T/C was 97.1%.

And the viability, T/C [1]?
The viability, T/C was 86.4%.

What about the viability, T/C [2] of the same compound?
Its viability, T/C is 58.3%.

What about the viability, T/C [3] of the same compound?
The viability, T/C was 37.9%.

And the viability, T/C [4]?
The viability, T/C was 24.8%.

And the viability, T/C (second compound 0.1 µM, first compound 0.00316 µM)?
The viability, T/C was 100%.

And the viability, T/C (second compound 0.1 µM, first compound 0.01 µM)?
The viability, T/C was 99.5%.

And the viability, T/C [5]?
The viability, T/C was 73.8%.

And the viability, T/C [6]?
The viability, T/C was 60.1%.

What about the viability, T/C [7] of the same compound?
Its viability, T/C is 42.4%.

And the viability, T/C [8]?
Its viability, T/C is 25.8%.

What about the viability, T/C (second compound 0.316 µM, first compound 0.00316 µM) of the same compound?
Its viability, T/C is 107%.

And the viability, T/C (second compound 0.316 µM, first compound 0.01 µM)?
The viability, T/C was 98.9%.

And the viability, T/C [9]?
Its viability, T/C is 71.5%.

And the viability, T/C [10]?
The viability, T/C was 49%.

And the viability, T/C [11]?
Its viability, T/C is 42.3%.

And the viability, T/C [12]?
The viability, T/C was 23.9%.

And the viability, T/C (second compound 1 µM, first compound 0.00316 µM)?
The viability, T/C was 94.1%.

What about the viability, T/C (second compound 1 µM, first compound 0.01 µM) of the same compound?
Its viability, T/C is 81.8%.

And the viability, T/C [13]?
The viability, T/C was 74.9%.

What about the viability, T/C [14] of the same compound?
Its viability, T/C is 49.9%.

What about the viability, T/C [15] of the same compound?
The viability, T/C was 32.4%.

And the viability, T/C [16]?
Its viability, T/C is 23.1%.

And the viability, T/C (second compound 3.16 µM, first compound 0.00316 µM)?
The viability, T/C was 73.2%.

And the viability, T/C (second compound 3.16 µM, first compound 0.01 µM)?
The viability, T/C was 71.5%.

What about the viability, T/C [17] of the same compound?
Its viability, T/C is 63.2%.

What about the viability, T/C [18] of the same compound?
Its viability, T/C is 46%.

What about the viability, T/C [19] of the same compound?
The viability, T/C was 29.4%.

And the viability, T/C [20]?
The viability, T/C was 21.3%.

And the viability, T/C (second compound 10 µM, first compound 0.00316 µM)?
The viability, T/C was 73.2%.

What about the viability, T/C (second compound 10 µM, first compound 0.01 µM) of the same compound?
The viability, T/C was 67.7%.

And the viability, T/C [21]?
The viability, T/C was 48.1%.

What about the viability, T/C [22] of the same compound?
Its viability, T/C is 39.4%.

What about the viability, T/C [23] of the same compound?
The viability, T/C was 28.9%.

And the viability, T/C [24]?
The viability, T/C was 19.3%.
